Here are results for 13 compounds from patent US4277479A, “Tetrazolylalkoxycarbostyril derivatives and pharmaceutical compositions containing them” (Otsuka Pharmaceutical Co., Ltd., priority 1978, dated 1981).

The target of series [1] is T1, cyclic AMP phosphodiesterase (Oryctolagus cuniculus, UniProt G1ST54).
T1 construct: the supernatant was collected to use it as a crude enzyme solution; from tissue; host or cells: rabbit platelets (from platelet-rich plasma)
T1 sequence (G1ST54 1-1128): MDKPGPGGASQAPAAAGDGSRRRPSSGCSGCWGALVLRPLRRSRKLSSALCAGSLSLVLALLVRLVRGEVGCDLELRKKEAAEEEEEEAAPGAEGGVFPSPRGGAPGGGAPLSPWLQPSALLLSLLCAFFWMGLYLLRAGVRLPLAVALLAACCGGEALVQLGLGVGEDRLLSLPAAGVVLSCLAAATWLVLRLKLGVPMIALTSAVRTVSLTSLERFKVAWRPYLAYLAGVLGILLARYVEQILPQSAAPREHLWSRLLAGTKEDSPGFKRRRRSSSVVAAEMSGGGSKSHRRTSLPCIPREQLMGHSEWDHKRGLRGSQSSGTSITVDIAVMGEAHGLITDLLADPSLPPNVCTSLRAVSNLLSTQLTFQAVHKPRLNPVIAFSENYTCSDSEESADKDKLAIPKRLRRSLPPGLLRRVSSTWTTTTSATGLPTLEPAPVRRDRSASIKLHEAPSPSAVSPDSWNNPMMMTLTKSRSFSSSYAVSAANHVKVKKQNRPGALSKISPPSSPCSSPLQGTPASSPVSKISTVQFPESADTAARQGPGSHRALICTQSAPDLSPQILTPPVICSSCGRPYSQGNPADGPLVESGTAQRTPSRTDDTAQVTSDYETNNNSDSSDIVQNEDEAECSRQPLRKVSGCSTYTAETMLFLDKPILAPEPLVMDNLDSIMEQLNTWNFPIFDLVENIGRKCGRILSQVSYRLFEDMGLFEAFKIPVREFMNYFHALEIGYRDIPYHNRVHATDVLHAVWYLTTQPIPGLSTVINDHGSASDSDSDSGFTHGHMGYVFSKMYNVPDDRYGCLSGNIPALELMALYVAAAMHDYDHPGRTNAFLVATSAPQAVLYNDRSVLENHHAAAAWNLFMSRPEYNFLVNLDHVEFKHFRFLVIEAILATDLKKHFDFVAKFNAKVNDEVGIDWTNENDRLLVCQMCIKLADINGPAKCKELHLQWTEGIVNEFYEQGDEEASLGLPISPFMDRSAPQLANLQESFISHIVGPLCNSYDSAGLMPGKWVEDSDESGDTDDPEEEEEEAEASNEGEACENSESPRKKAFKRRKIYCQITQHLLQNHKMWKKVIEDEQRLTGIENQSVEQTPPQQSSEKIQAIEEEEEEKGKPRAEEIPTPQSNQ
Description: Obstructive action against cyclic AMP phosphodiesterase. The series is classed as biochemical, rabbit. As to conditions: 0.4 μmol cyclic AMP, read-out: Phosphodiesterase obstruction rate. Here is the method:
(Test of obstructive action against cyclic AMP phosphodiesterase)
The obstructive action against cyclic AMP phosphodiesterase was measured according to the activity measuring method described in "Biochimica et Biophysica Acta", Vol. 429, pp. 485-497 (1976) and "Biochemical Medicine", Vol. 10, pp. 301-311 (1974).
That is, for determining the obstructive activity against cyclic AMP phosphodiesterase, 10 ml of a solution obtained by adding 1 mmol of MgCl2 into 50 mmol of tris-hydrochloric acid buffer with pH 7.4 was added to the platelets obtained by further centrifuging the above-said rabbit PRP at 3,000 r.p.m. for 10 minutes, and the suspended platelets were ground by a Teflon potter type homogenizer. This was followed by two times of freezing and thawing treatment and 300-second fracturing with 200 watt supersonic waves. After additional 60-minute centrifugation with 100,000 g, the supernatant was collected to use it as a crude enzyme solution.
10 Milliliters of this crude buffer solution was added to a 1.5×20 cm DEAE-cellulose column which has previously been buffered with 50 mmol of tris-acetate buffer (pH 6.0), followed by washing and elution with 30 ml of 50 mmol tris-acetate buffer, and this buffer solution was subjected to linear gradient elution with 0 to 1 moles of sodium acetate-tris-acetate buffer. The flow rate was 0.5 ml/min, and 5 ml of each fraction was batched out. […] This fraction was used as cyclic AMP phosphodiesterase.
0.1 Milliliter of an aqueous solution of each test compound of a specified concentration was mixed with 40 mmol of tris-hydrochloric acid buffer (pH 8.0, containing 50 μg of cow serum albumin and 4 mmol of MgCl2) containing predetermined 0.4 μmol of cyclic AMP (tritium cyclic AMP), and 0.2 ml of this mixed solution was used as a substrate solution.
0.2 Milliliter of the above-prepared cyclic AMP phosphodiesterase of a predetermined concentration was added to said substrate solution and the mixture was reacted at 30° C. for 20 minutes, producing tritium 5'-AMP from the tritium cyclic AMP.
The reaction system was then immersed in boiling water for 2 minutes to stop the reaction, and then this reaction solution was cooled in ice water and, for converting the produced tritium 5'-AMP into tritium adenosine, the solution was added with 0.05 ml (1 mg/ml) of snake poison as 5'-nucleotidase and reacted at 30° C. for 10 minutes. The whole amount of this reaction solutions was then added to a cation exchange resin (AG 500 W×4, 200-400 meshes, manufactured by Bio-Rad Co., column size: 0.5×1.5 cm), and the produced tritium anodesine alone was allowed to combine, washed with 6 ml of distilled water and eluted with 1.5 ml of 3 N-ammonia water. The whole quantity of the elutant was added with 10 ml of a triton-toluene type scintillator and the produced tritium adenosine was measured by a liquid scintillation counter to determine the phosphodiesterase activity.
In this way, the phosphodiesterase activation value (Vs) of the test compounds of the respective concentrations was determined, and the phosphodiesterase obstruction rate (%) was determined from said activation value (Vs) and control value (Vc) (obtained from water not containing any test compound) from the following formula: [formula]

Series [2] relates to rabbit platelet (collagen-induced aggregation). Description: Platelet aggregation inhibitory effect, collagen-induced aggregation in rabbit platelet. The series is classed as cell-based. As to conditions: Oryctolagus cuniculus, read-out: Inhibition effect on collagen-induced aggregation in rabbit platelet. From the text: (§1) The blood sample used for the test is a 1/9 (by volume) mixture of sodium citrate and whole blood collected from rabbit. Said sample is subjected to 10-minute centrifugal separation at 1,000 r.p.m. to obtain a platelet rich plasma (PRP). The thus obtained PRP is separated, and the remaining blood sample is further subjected to 15-minute centrifugal separation at 3,000 r.p.m. to obtain a platelet poor plasma (PPP).
(§2) The number of platelets in the PRP is counted by the Brecher-Clonkite Method, and the PRP is diluted with the PPP to prepare a PRP sample with platelet concentration of 300,000/mm^3 for the adenosine diphosphate (ADP)-induced aggregation test. There is also prepared a PRP sample with platelet concentration of 450,000/mm^3 for the collagen-induced aggregation test.
(§3) 0.6 Ml of said PRP sample is added into 0.01 ml of a solution of a test compound of a predetermined concentration and the mixture is placed in a 37° C. thermostat for one minute. Then 0.07 ml of an ADP or collagen solution is added to the mixture. Transmittance of this mixture is determined and the change of transmittance is recorded by using the aggregometer at stirrer speed of 1,100 r.p.m. […] ADP is adjusted to a concentration of 7.5×10^-5 M, and the collagen solution is prepared by triturating 100 mg of collagen with 5 ml of said buffer and the supernatant is used as collagen inducer. Adenosine and acetylsalicylic acid are used as controls for the ADP-induced aggregation test and the collagen-induced aggregation test, respectively. The platelet aggregation inhibitory effect is measured in terms of percent inhibition with respect to the aggregation rate of the controls. The aggregation rate is calculated from the following formula: [formula] wherein a: transmittance of PRP
(§4) b: transmittance of PRP containing a test compound and an aggregation inducer
(§5) The compounds tested are as follows.

Series [3] relates to rabbit platelet (ADP-induced aggregation). Nature of the series: Platelet aggregation inhibitory effect, ADP-induced aggregation in rabbit platelet. As to conditions: Oryctolagus cuniculus; for inhibition at 100 µM / inhibition at 10 µM: read-out: Inhibition effect on ADP-induced aggregation in rabbit platelet; for inhibition at 1 µM: concentration of the test compound solution 10^-6 mole. The series is classed as cell-based.
Description: as §1, §2, §3, §4, §5

A further series can be described thus: Acute toxicity test. As to conditions: mouse, in vivo; male mice, oral administration. As to the method: The test compounds were administered orally to the mice and LD50 (mg/kg) of the compounds was determined.
Where [4] appears, read: concentration of the test compound solution 10^-4 mole.
The mark [5] stands for this setting: concentration of the test compound solution 10^-5 mole.
[6] abbreviates: concentration of the test compound solution 10^-6 mole.

Read-outs that look alike come from different tables or passages of the source.

In the case of `CC(C)Cn1c(=O)n(C)c(=O)c2[nH]cnc21` [1-Methyl-3-isobutylxanthine, 1-methyl-3-isobutylxanthine, reference compound], the inhibition at 1 µM in series [1] (concentration of test compound solution 10^-6 mole) amounted to 63.4%. In addition, the inhibition in series [1] (concentration of test compound solution 10^-7 mole) was 4.2%.
What is called LD50 is the dose at which mortality reaches 50%. As to `CC(C)n1nnnc1CCCOc1ccc2[nH]c(=O)ccc2c1` [Compound 2, 6-[3-(1-Isopropyltetrazol-5-yl)propoxy]carbostyril], the inhibition at 100 µM in series [2] (setting [4]) is 100%; in series [3] (setting [4]) it was 74.7%. The inhibition at 10 µM in series [2] (setting [5]) came out at 58.1%; in series [3] (setting [5]), 36.8%. For the same compound, the figures for the inhibition at 1 µM in series [2] (setting [6]) and in series [3] were 11.8% and 11.9%, respectively. Besides, the LD50 in “Acute toxicity test” was over 1000 mg/kg.
As to `Cn1c(=O)ccc2cc(OCCCc3nnnn3C3CCCCC3)ccc21` [Compound 8, 1-Methyl-6-[3-(1-cyclohexyltetrazol-5-yl)propoxy]carbostyril], the inhibition at 100 µM in series [2] (setting [4]) was 91.5%; in series [3] (setting [4]), 87.8%. In addition, the inhibition at 10 µM in series [2] (setting [5]) turned out to be 43.4%; in series [3] (setting [5]) it was 42.4%. Also, the inhibition at 1 µM in series [2] (setting [6]) worked out at 18.6%; in series [3], 21.3%. In addition, in “Acute toxicity test”, the LD50 is over 1000 mg/kg.
Turning to `CC(=O)Oc1ccccc1C(=O)O` [Compound 17, Aspirin, reference compound], in series [2], the inhibition at 1 µM was 7%, the inhibition at 10 µM was 9% and the inhibition at 100 µM was 65%. In series [3], the inhibition at 10 µM was determined as 0% and the inhibition at 100 µM came out at 7%.
For the compound `CSc1nnnn1CCCOc1ccc2c(c1)CCC(=O)N2` [Compound 18, 6-[3-(5-Methylthiotetrazol-1-yl)propoxy]-3,4-dihydrocarbostyril, reference compound], the results for the inhibition at 100 µM in series [2] (setting [4]) and in series [3] (setting [4]) were 67.4% and 0%, respectively. Moreover, in series [2] (setting [5]), the inhibition at 10 µM is 13.3%.
In the case of `CSc1nnn(CCCOc2ccc3c(c2)CCC(=O)N3)n1` [Compound 19, 6-[3-(5-Methylthiotetrazol-2-yl)propoxy]-3,4-dihydrocarbostyril, reference compound], the inhibition at 100 µM in series [2] (setting [4]) came to 73.4%; in series [3] (setting [4]) it was 2.3%. Further, in series [2] (setting [5]), the inhibition at 10 µM was determined as 1.3%.
Take `O=C1CCc2cc(OCCCn3cnnn3)ccc2N1` [Compound 20, 6-[3-(Tetrazol-1-yl)propoxy]-3,4-dihydrocarbostyril, reference compound]: the inhibition at 100 µM in series [2] (setting [4]) was 77.4%; in series [3] (setting [4]), 4.3%. Moreover, the inhibition at 10 µM in series [2] (setting [5]) was found to be 0%.
Regarding `O=C1CCc2c(cccc2OCCN2CCCCC2)N1` [Compound 21, 5-(2-Piperidinoethoxy)-3,4-dihydrocarbostyril, reference compound], the inhibition at 100 µM in series [2] (setting [4]) stood at 25%; in series [3] (setting [4]), 18%.
Turning to `O=C1CCc2c(cccc2OCCN2CCOCC2)N1` [Compound 22, 5-(2-Morpholinoethoxy)-3,4-dihydrocarbostyril, reference compound], the figures for the inhibition at 100 µM in series [2] (setting [4]) and in series [3] (setting [4]) were 23% and 13%, respectively.
In the case of `O=C1CCc2c(cccc2OCCCN2CCCCC2)N1` [Compound 23, 5-(3-Piperidinopropoxy)-3,4-dihydrocarbostyril, reference compound], the inhibition at 100 µM in series [2] (setting [4]) worked out at 27%; in series [3] (setting [4]), 15%.
For `O=C1CCc2cc(OCCN3CCOCC3)ccc2N1` [Compound 24, 6-(2-Morpholinoethoxy)-3,4-dihydrocarbostyril, reference compound], the inhibition at 100 µM was 31% in series [2] (setting [4]) and 17% in series [3] (setting [4]).
`O=C1CCc2ccc(OCCCN3CCCCC3)cc2N1` [Compound 25, 7-(3-Piperidinopropoxy)-3,4-dihydrocarbostyril, reference compound]: the inhibition at 100 µM is 18% in series [2] (setting [4]) and 12% in series [3] (setting [4]).
For `CC(COc1cccc2c1NC(=O)CC2)N1CCCCC1` (stereo not drawn) [Compound 26, 8-(2-Piperidinopropoxy)-3,4-dihydrocarbostyril, reference compound], in that order: 12% and 14%.
